# Results: patent US11976068B2 (CHIMERIX, INC., priority 2015, dated 2024)
# “And” between values parts separate entries of the source, which are not always exact repeats. Equal values may be shown once.
# Experiments:
# advanced solid tumors = assay: Phase I trial, tumor response (RECIST); type: in vivo, human
# Description: Tumor responses were assessed using RECIST every 2 cycles.
# TRAIL = assay: Phase I trial, serum TRAIL ELISA; type: in vivo, human
# [1] = test system: 1020 genetically annotated cell lines; assay: Tumor type in vitro sensitivity, GDSC cell lines, cell viability at 72 hours; type: cell-based; settings: tertile of average IC50
# Excerpt: The estimated IC50 values were averaged across multiple cell lines for each tumor type. Tumor types were categorized into three different groups that represented tertiles of average IC50 values.
# [2] = test system: human foreskin fibroblasts (HFF), human fetal lung fibroblast (MRC-5) cells, human lung fibroblast cell line (WI-38); settings: 72 hours
# human MDR1 = human MDR1 (Homo sapiens, UniProt P08183); settings: at 200 micromolar
# human MDR1, sequence (P08183 whole entry): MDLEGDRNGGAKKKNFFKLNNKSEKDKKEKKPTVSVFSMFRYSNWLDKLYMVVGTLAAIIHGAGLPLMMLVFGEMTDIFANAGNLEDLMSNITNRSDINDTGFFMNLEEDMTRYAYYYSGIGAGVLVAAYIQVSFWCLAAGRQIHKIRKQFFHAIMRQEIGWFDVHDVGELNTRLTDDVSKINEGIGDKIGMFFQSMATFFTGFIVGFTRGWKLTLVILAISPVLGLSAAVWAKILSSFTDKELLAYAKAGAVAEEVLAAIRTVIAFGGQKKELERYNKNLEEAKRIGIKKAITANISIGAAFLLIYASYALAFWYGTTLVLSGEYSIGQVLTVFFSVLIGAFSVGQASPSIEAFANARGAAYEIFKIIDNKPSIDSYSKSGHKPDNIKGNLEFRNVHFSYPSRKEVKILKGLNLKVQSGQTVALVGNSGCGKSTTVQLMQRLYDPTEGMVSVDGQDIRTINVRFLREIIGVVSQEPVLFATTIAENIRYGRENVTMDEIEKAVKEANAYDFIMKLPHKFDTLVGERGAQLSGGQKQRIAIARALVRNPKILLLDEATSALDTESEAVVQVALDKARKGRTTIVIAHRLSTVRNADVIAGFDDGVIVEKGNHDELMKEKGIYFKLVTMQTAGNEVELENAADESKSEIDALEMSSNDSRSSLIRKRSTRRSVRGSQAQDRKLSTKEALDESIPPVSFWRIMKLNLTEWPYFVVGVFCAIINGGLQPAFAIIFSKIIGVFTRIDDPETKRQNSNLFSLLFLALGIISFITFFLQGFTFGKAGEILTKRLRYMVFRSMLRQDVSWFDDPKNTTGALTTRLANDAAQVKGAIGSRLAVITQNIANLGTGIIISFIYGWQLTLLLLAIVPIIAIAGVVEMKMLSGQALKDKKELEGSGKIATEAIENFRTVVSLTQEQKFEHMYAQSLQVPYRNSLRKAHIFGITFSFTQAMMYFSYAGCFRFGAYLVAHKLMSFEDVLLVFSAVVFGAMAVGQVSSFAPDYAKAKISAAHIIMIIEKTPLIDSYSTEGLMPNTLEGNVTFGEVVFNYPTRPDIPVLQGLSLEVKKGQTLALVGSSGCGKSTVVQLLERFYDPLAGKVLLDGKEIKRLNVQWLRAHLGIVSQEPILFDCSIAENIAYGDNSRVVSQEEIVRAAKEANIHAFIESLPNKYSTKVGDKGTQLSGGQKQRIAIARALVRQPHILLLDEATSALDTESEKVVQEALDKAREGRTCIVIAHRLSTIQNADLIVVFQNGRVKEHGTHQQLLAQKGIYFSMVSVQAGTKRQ
# [3] = test system: human colon cancer cell line (HCT116), breast tumor cell line (MDA-MB-231), human primary glioblastoma cell line (U87); assay: Cell viability, tumor cells (FIG. 1)
# [4] = Phase I trial, plasma pharmacokinetics of oral ONC201; settings: for AUC(0-t): AUClast; for Vd/F: Vz/F
# human BCRP = molecular target: T1, human BCRP (Homo sapiens, UniProt Q9UNQ0); assay: BCRP inhibition, bidirectional permeability of prazosin in MDCKII-BCRP monolayers; settings: at 200 micromolar
# T1 sequence (Q9UNQ0 1-655): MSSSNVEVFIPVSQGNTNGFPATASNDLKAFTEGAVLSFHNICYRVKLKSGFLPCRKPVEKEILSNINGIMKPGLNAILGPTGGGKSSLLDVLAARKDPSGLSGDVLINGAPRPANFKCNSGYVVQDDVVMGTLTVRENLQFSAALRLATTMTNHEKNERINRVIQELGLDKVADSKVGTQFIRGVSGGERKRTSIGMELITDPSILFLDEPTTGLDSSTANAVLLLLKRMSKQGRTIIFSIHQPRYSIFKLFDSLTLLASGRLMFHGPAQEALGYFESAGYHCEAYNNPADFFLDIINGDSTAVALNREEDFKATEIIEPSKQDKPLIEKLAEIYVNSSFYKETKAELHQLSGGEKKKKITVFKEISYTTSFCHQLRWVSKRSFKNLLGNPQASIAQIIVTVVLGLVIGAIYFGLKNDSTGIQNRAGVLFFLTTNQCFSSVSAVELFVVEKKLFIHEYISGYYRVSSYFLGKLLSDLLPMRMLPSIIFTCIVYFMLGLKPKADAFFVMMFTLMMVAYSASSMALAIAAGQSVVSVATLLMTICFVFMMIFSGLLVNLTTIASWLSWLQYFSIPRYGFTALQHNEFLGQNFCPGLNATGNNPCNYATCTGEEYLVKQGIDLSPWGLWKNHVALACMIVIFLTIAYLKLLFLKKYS
# [5] = N=6 patients receiving 625 mg ONC201 every three weeks
# [6] = human, in vivo, 625 mg, Mean, N=6 patients receiving 625 mg ONC201 every three weeks
# [7] = human, in vivo, 625 mg, Median, N=6 patients receiving 625 mg ONC201 every three weeks
# [8] = human, in vivo, 625 mg, Geo. Mean, N=6 patients receiving 625 mg ONC201 every three weeks
compound,measurement,setting,value
"Cc1ccccc1CN1C(=O)C2=C(CCN(Cc3ccccc3)C2)N2CCN=C12 [ONC201, 7-benzyl-4-(2-methylbenzyl)-2,4,6,7,8,9-hexahydroimidazo [1,2-a]pyrido[3,4-e]pyrimidin-5(1H)-one]",Time on Study,"advanced solid tumors; Pat # 1, NSCLC, 125 mg, 4 doses",12 weeks
same,Time on Study,"advanced solid tumors; Pat # 2, Appendiceal cancer, 250 mg, 4 doses",12 weeks
same,Time on Study,"advanced solid tumors; Pat # 3, Uterine cancer, 375 mg, 2 doses",6 weeks
same,Time on Study,"advanced solid tumors; Pat # 4, Renal cancer, 500 mg, 2 doses",6 weeks
same,Time on Study,"advanced solid tumors; Pat # 5, Breast cancer, 625 mg, 2 doses",6 weeks
same,Time on Study,"advanced solid tumors; Pat # 6, Prostate adenocarcinoma, 625 mg, 9 doses",27 weeks
same,Time on Study,"advanced solid tumors; Pat # 7, Small cell lung cancer, 625 mg, 2 doses",6 weeks
same,Time on Study,"advanced solid tumors; Pat # 8, Colon adenocarcinoma, 625 mg, 4 doses",12 weeks
same,Time on Study,"advanced solid tumors; Pat # 9, Spindle cell sarcoma, 625 mg, 2 doses",6 weeks
same,Time on Study,"advanced solid tumors; Pat # 10, Ovarian, 625 mg, 1 dose",3 weeks
same,decrease of multiple nodes,"advanced solid tumors; Patient #3, advanced clear cell endometrial cancer, mixed response with new nodes",> 30%
same,symptom relief,"advanced solid tumors; Patient #4, renal cancer and bone metastasis with debilitating pain in the clavicle",relief from their clavicular pain
same,patients with stable disease,"advanced solid tumors; dose escalation phase, 10 patients",Eight of 10
same,increase in serum TRAIL,"TRAIL; half of the patients, mostly peaked within the first 24 hours of drug administration",~20%
same,number of patients with serum TRAIL induction,TRAIL; serum soluble TRAIL,2
same,Tumor Type In Vitro Sensitivity,[1]; tumor type Breast cancer,Low
same,Tumor Type In Vitro Sensitivity,[1]; tumor type Colon adenocarcinoma,High
same,Tumor Type In Vitro Sensitivity,[1]; tumor type NSCLC,Med
same,Tumor Type In Vitro Sensitivity,[1]; tumor type Ovarian,Med
same,Tumor Type In Vitro Sensitivity,[1]; tumor type Prostate adenocarcinoma,High
same,Tumor Type In Vitro Sensitivity,[1]; tumor type Renal cancer,Med
same,Tumor Type In Vitro Sensitivity,[1]; tumor type Small cell lung cancer,High
same,Tumor Type In Vitro Sensitivity,[1]; tumor type Spindle cell sarcoma,Low
same,Tumor Type In Vitro Sensitivity,[1]; tumor type Uterine cancer,Med
same,cell viability of normal cells,[2]; about 1-5 mg/mL compound (1),at least 75%
same,viability of normal cells,[2]; beyond about 5 mg/mL compound (1),about 75%
same,inhibitor of MDR1,human MDR1,inhibitor
same,viability at 5000 µg/mL,"[3]; Homo sapiens, 72 h, read-out: viability of tumor cells",< 25%
same,viability of tumor cells,"[3]; about 1-5 mg/mL compound (1), 72 hours",≤ 50%
same,"AUC, Min",[4]; [5],13868 h · ng/m
same,"CL/F, Geo. Mean",[4]; [5],25.41 L/h
same,"CL/F, Max",[4]; [5],45.07 L/h
same,"CL/F, Mean",[4]; [5],27.19 L/h
same,"CL/F, Median",[4]; [5],24.83 L/h
same,"CL/F, Min",[4]; [5],14.03 L/h
same,"Cmax, Max",[4]; [5],7470 ng/mL
same,"Cmax, Min",[4]; [5],1530 ng/mL
same,"Tlag, Max",[4]; [5],0.30 h
same,"Tlag, Mean",[4]; [5],0.05 h
same,"Tlag, Median",[4]; [5],0.00 h
same,"Tlag, Min",[4]; [5],0.00 h
same,"Tmax, Max",[4]; [5],3.95 h
same,"Tmax, Min",[4]; [5],0.37 h
same,"t1/2, Max",[4]; [5],12.55 h
same,"t1/2, Min",[4]; [5],7.71 h
same,"λZ, Geo. Mean",[4]; [5],0.073 h⁻¹
same,"λZ, Max",[4]; [5],0.090 h⁻¹
same,"λZ, Mean",[4]; [5],0.074 h⁻¹
same,"λZ, Median",[4]; [5],0.072 h⁻¹
same,"λZ, Min",[4]; [5],0.055 h⁻¹
same,concentration at 24 h,"[4]; human, in vivo",0.9 µM
same,Vd,"[4]; human, in vivo, 625 mg",381 L
same,AUC,"[4]; human, in vivo, 625 mg, AUC, Geo. Mean, N=6 patients receiving 625 mg ONC201 every three weeks",24600 ng·h/mL
same,AUC,"[4]; human, in vivo, 625 mg, AUC, Mean, N=6 patients receiving 625 mg ONC201 every three weeks",26300 ng·h/mL
same,AUC,"[4]; human, in vivo, 625 mg, AUC, Median, N=6 patients receiving 625 mg ONC201 every three weeks",25600 ng·h/mL
same,AUC(0-t),[4]; [6],25500 ng·h/mL
same,AUC(0-t),[4]; [7],24300 ng·h/mL
same,Cmax,"[4]; human, in vivo, 625 mg, Cmax, Geo. Mean, N=6 patients receiving 625 mg ONC201 every three weeks",2890 ng/mL
same,Cmax,"[4]; human, in vivo, 625 mg, Cmax, Mean, N=6 patients receiving 625 mg ONC201 every three weeks",3310 ng/mL
same,Cmax,"[4]; human, in vivo, 625 mg, Cmax, Median, N=6 patients receiving 625 mg ONC201 every three weeks",2720 ng/mL
same,AUC,"[4]; human, in vivo, 625 mg, Mean AUC, top dose cohort (625 mg)",26300 ng·h/mL
same,Tmax,[4]; [8],1.34 h
same,Tmax,[4]; [6],1.79 h
same,Tmax,[4]; [7],1.91 h
same,Vd/F,[4]; [8],348 L
same,Vd/F,[4]; [6],381 L
same,Vd/F,[4]; [7],404 L
same,Cmax,"[4]; human, in vivo, 625 mg, mean Cmax, top dose cohort (625 mg), first dose",3310 ng/mL
same,half-life,"[4]; human, in vivo, 625 mg, mean t1/2, top dose cohort (625 mg)",9.62 h
same,half-life,"[4]; human, in vivo, 625 mg, t1/2, Geo. Mean, N=6 patients receiving 625 mg ONC201 every three weeks",9.49 h
same,half-life,"[4]; human, in vivo, 625 mg, t1/2, Mean, N=6 patients receiving 625 mg ONC201 every three weeks",9.62 h
same,half-life,"[4]; human, in vivo, 625 mg, t1/2, Median, N=6 patients receiving 625 mg ONC201 every three weeks",9.6 h
same,Cmax,"[4]; human, in vivo, Cmax, plasma, as quoted for the CYP margin",9 µM
same,AUC,"[4]; human, in vivo, po, 625 mg, AUC, oral ONC201, PK analysis",25000 ng·h/mL
same,Cmax,"[4]; human, in vivo, po, 625 mg, Cmax, 625 mg (RP2D) orally every 3 weeks",1500 ng/mL to 7500 ng/mL and 3.9 µM to 19.4 µM
same,half-life,"[4]; human, in vivo, po, 625 mg, half-life, oral ONC201, PK analysis",9.6 h
same,"dose at which plasma concentrations / systemic exposure (AUC, Cmax) saturated","[4]; oral, dose escalation 125-625 mg",375 mg
same,inhibitor of BCRP,human BCRP,inhibitor
